Reference: PubChem BioAssay (NCI)
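Protocol summary: plate cells (96-well), add compound at 5 concentrations, incubate 48 h, interpolate endpoints linearly. GI50 is the concentration that inhibits growth by half. At the TGI there is no net growth.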

Columns and labels:
Experiment in all cases: NCI anticancer screen, dose series, 48 h
[1] = test system: RXF 393 renal
[2] = test system: PC-3 prostate
[3] = test system: CAKI-1 renal
[4] = test system: SR leukemia
[5] = test system: MDA-MB-231 breast
[6] = test system: SK-OV-3 ovarian
[7] = test system: MOLT-4 leukemia
[8] = test system: UO-31 renal
[9] = test system: SF-295 CNS
[10] = test system: BT-549 breast
[11] = test system: K-562 leukemia
[12] = test system: CCRF-CEM leukemia
[13] = test system: SF-539 CNS
[14] = test system: DU-145 prostate
[15] = test system: OVCAR-3 ovarian
[16] = test system: HOP-92 NSCLC
[17] = test system: SW-620 colon
[18] = test system: NCI-H460 lung
[19] = test system: OVCAR-5 ovarian
[20] = test system: HL-60(TB) leukemia
[21] = test system: KM12 colon
[22] = test system: UACC-62 melanoma
[23] = test system: A498 renal
[24] = test system: OVCAR-8 ovarian
[25] = test system: ACHN renal
[26] = test system: SN12C renal
[27] = test system: SK-MEL-5 melanoma
[28] = test system: SNB-75 CNS
[29] = test system: TK-10 renal
[30] = test system: NCI/ADR-RES ovarian
[31] = test system: 786-0 renal
[32] = test system: NCI-H522 lung
[33] = test system: T-47D breast
[34] = test system: MCF7 breast
[35] = test system: COLO 205 colon
[36] = test system: HS 578T breast
[37] = test system: M14 melanoma
[38] = test system: A549 NSCLC
[39] = test system: SF-268 CNS
[40] = test system: LOX IMVI melanoma
[41] = test system: HT29 colon
[42] = test system: U251 CNS
[43] = test system: HCT-15 colon
[44] = test system: RPMI-8226 leukemia
[45] = test system: MALME-3M melanoma
[46] = test system: NCI-H226 lung
[47] = test system: HOP-62 NSCLC
[48] = test system: OVCAR-4 ovarian
[49] = test system: MDA-MB-435
[50] = test system: HCC-2998 colon
[51] = test system: SK-MEL-2 melanoma
[52] = test system: EKVX NSCLC
[53] = test system: SNB-19 CNS
[54] = test system: HCT-116 colon
[55] = test system: UACC-257 melanoma
[56] = test system: SK-MEL-28 melanoma

## Cc1[nH]c(C(=O)Nc2ccccc2OCc2cccc(C(=O)N3CCC[C@@H](N)C3)c2)c(Cl)c1Cl
[1]
  GI50: 1640 nM
  TGI: 3.3 µM
[2]
  GI50: 1530 nM
  TGI: 3.06 µM
[3]
  GI50: 1630 nM
  TGI: 3.17 µM
[4]
  GI50: 254 nM
  TGI: 0.771 µM
[5]
  GI50: 1770 nM
  TGI: 3.5 µM
[6]
  GI50: 1800 nM
  TGI: 3.39 µM
[7]
  GI50: 1690 nM
  TGI: 3.43 µM
[8]
  GI50: 1330 nM
  TGI: 2800 nM
[9]
  GI50: 1790 nM
  TGI: 3.36 µM
[10]
  GI50: 1780 nM
  TGI: 3.43 µM
[11]
  GI50: 1130 nM
  TGI: 2.5 µM
[12]
  GI50: 1240 nM
  TGI: 2.99 µM
[13]
  GI50: 1570 nM
  TGI: 2.96 µM
[14]
  GI50: 1790 nM
  TGI: 3.26 µM
[15]
  GI50: 1710 nM
  TGI: 3.15 µM
[16]
  GI50: 1060 nM
  TGI: 2.62 µM
[17]
  GI50: 1630 nM
  TGI: 3.12 µM
[18]
  GI50: 1930 nM
  TGI: 3.76 µM
[19]
  GI50: 1570 nM
  TGI: 2.98 µM
[20]
  GI50: 1120 nM
  TGI: 2.67 µM
[21]
  GI50: 1820 nM
  TGI: 3.4 µM
[22]
  GI50: 1600 nM
  TGI: 3.09 µM
[23]
  GI50: 1560 nM
  TGI: 3.01 µM
[24]
  GI50: 2060 nM
  TGI: 4.57 µM
[25]
  GI50: 1610 nM
  TGI: 3.02 µM
[26]
  GI50: 1770 nM
  TGI: 3.41 µM
[27]
  GI50: 1720 nM
  TGI: 3.11 µM
[28]
  GI50: 1330 nM
  TGI: 2.71 µM
[29]
  GI50: 2040 nM
  TGI: 3.7 µM

## NC(N)=Nc1ccc(Oc2cccc(Nc3ccc(Br)c(C(F)(F)F)c3)c2)cn1
[6]
  GI50: 2040 nM
  TGI: 3.68 µM
[11]
  GI50: 2070 nM
  TGI: > 100 µM
[20]
  GI50: 1630 nM
  TGI: 4.12 µM
[30]
  GI50: 3930 nM
  TGI: 29.5 µM
[25]
  GI50: 1750 nM
  TGI: 3.2 µM

## Cn1cc(-c2cc(N)n3nc(-c4cn(C)c5ccc(F)cc45)cc3n2)c2cc(F)ccc21
[1]
  GI50: 1830 nM
  TGI: 3.53 µM
[2]
  GI50: 1890 nM
  TGI: 3.84 µM
[3]
  GI50: 2040 nM
  TGI: 4.42 µM
[31]
  GI50: 1500 nM
  TGI: 3000 nM
[32]
  GI50: 1620 nM
  TGI: 3.28 µM
[4]
  GI50: 1970 nM
  TGI: 8.4 µM
[33]
  GI50: 1750 nM
  TGI: 3.69 µM
[34]
  GI50: 1670 nM
  TGI: 3.19 µM
[5]
  GI50: 2000 nM
  TGI: 3.79 µM
[6]
  GI50: 20900 nM
  TGI: 40.5 µM
[7]
  GI50: 2310 nM
  TGI: 7.01 µM
[35]
  GI50: 1750 nM
  TGI: 3.18 µM
[36]
  GI50: 2450 nM
  TGI: 5.9 µM
[8]
  GI50: 1520 nM
  TGI: 2950 nM
[37]
  GI50: 1680 nM
  TGI: 3.35 µM
[9]
  GI50: 1940 nM
  TGI: 3.73 µM
[10]
  GI50: 1760 nM
  TGI: 3.51 µM
[38]
  GI50: 1560 nM
  TGI: 3.01 µM
[39]
  GI50: 1890 nM
  TGI: 3.95 µM
[11]
  GI50: 2790 nM
  TGI: 10 µM
[40]
  GI50: 2570 nM
  TGI: 4.22 µM
[41]
  GI50: 1640 nM
  TGI: 3.2 µM
[12]
  GI50: 2750 nM
  TGI: 7.92 µM
[42]
  GI50: 1680 nM
  TGI: 3.17 µM
[43]
  GI50: 1850 nM
  TGI: 3.94 µM
[13]
  GI50: 1900 nM
  TGI: 3.45 µM
[14]
  GI50: 1800 nM
  TGI: 3.38 µM
[44]
  GI50: 2640 nM
  TGI: 8.01 µM
[15]
  GI50: 1740 nM
  TGI: 3.16 µM
[45]
  GI50: 1840 nM
  TGI: 3.57 µM
[46]
  GI50: 6.5 µM
  TGI: 27.8 µM
[16]
  GI50: 1900 nM
  TGI: 3.5 µM
[17]
  GI50: 1780 nM
  TGI: 3.41 µM
[47]
  GI50: 1990 nM
  TGI: 4.31 µM
[18]
  GI50: 1900 nM
  TGI: 3.75 µM
[19]
  GI50: 1930 nM
  TGI: 4.1 µM
[20]
  GI50: 1830 nM
  TGI: 5.04 µM
[48]
  GI50: 1900 nM
  TGI: 3.9 µM
[21]
  GI50: 1840 nM
  TGI: 3.56 µM
[22]
  GI50: 1710 nM
  TGI: 3.28 µM
[49]
  GI50: 1730 nM
  TGI: 3.38 µM
[23]
  GI50: 1940 nM
  TGI: 6.18 µM
[30]
  GI50: 2060 nM
  TGI: 4.6 µM
[24]
  GI50: 1820 nM
  TGI: 3.53 µM
[25]
  GI50: 1740 nM
  TGI: 3.13 µM
[26]
  GI50: 1900 nM
  TGI: 3.66 µM
[50]
  GI50: 1740 nM
  TGI: 3.24 µM
[51]
  GI50: 2110 nM
  TGI: 5.97 µM
[52]
  GI50: 1730 nM
  TGI: 3.5 µM
[53]
  GI50: 2010 nM
  TGI: 4.11 µM
[54]
  GI50: 1850 nM
  TGI: 3.57 µM
[27]
  GI50: 1710 nM
  TGI: 3.17 µM
[28]
  GI50: 2290 nM
  TGI: 12.4 µM
[55]
  GI50: 1780 nM
  TGI: 3.58 µM
[56]
  GI50: 1790 nM
  TGI: 3.23 µM
[29]
  GI50: 1620 nM
  TGI: 5.91 µM
